Here are results for 14 compounds from patent publication US20260199493A1 (priority 2021, published 2026).

In assay [1] the test system is HaloTag-ActA fusion protein. Nature of the assay: Chloroalkane penetration assay (HaloTag). The class given is cell-based. The following applies: HEK293-HaloTag cells, chloroalkane-tagged peptide, 24 h with FBS, then 5 μM TMR-ct. From the text: Assay design. HEK293 cells were produced that stably express a HaloTag-ActA fusion protein (“HEK293-HaloTag”) which ensures fusion protein localization to the outer mitochondrial membrane with exposure to the cytosol. The HaloTag protein rapidly reacts covalently with short chloroalkane-containing compounds, occupying the active site and preventing further reactions. The chloroalkane penetration assay utilizes this reactivity in a pulse-chase assay where cells are first treated with cCPPs-chloroalkane of interest, followed by incubation with cell-permeable fluorescent dye tetramethylrhodamine-chloroalkane (“TMR-ct”). If cCPPs have gained access to the cytosol, they will react with HaloTag and prevent it from reacting with TMR-ct. The relative cell-penetrating efficiency of compounds can therefore be determined by their ability to reduce cellular TMR fluorescence after a washout period with this value expressed as IC50.
Cell penetrating peptides. Cell penetrating peptides having the sequences indicated in Table 13 (below) were functionalized on the lysine residue with a chloroalkane tag of the sequence N^1-(2-(2-((5-chlorohexyl)oxy)ethoxy)ethyl-N^4-(2-(2-(2-oxoethoxy)ethoxy)ethyl)succinamide (referred to as “chloroalkane” in Table 13), purified, and prepared as stock solutions in DMSO with concentration determined by A280 or weight as applicable.
Determination of cell-penetrating efficiency. Compounds to be evaluated were prepared as stock solutions in DMSO and diluted in PBS before addition to HEK293-HaloTag ells as a serial dilution from 30 μM to 0.5 nM. Cells were incubated with the compounds at a given concentration for 24 h in the presence of FBS at 37° C. After incubation, cells were washed thoroughly with PBS and to the cells was added fresh, serum-free media containing 5 μM TMR-ct and incubated for 30 min. After incubation, the cells were washed and incubated in fresh media to wash-out any unreacted TMR-ct. Cells were then imaged and quantified for cellular fluorescence using high-content imaging. Values are normalized to vehicle-treated cells and an IC50 calculated using a 4-parameter logarithmic fit in GraphPad PRISM v.8.

In assay [2] the test system is exon 44 of human dystrophin mRNA. Nature of the assay: Exon 44 skipping by RT-PCR in hDMD mice. The conditions noted are these: hDMD mice, 5 days. In kind it is in vivo. As to the method:
The hemizygous mice were further genotyped at Transnetyx. All groups were dosed 5 mL/kg per animal by intravenous (iv) injection and sacrificed after 5 days post injection. All animals were euthanized by CO2 asphyxiation followed by terminal blood collection via cardiac puncture. Maximum obtainable volume of whole blood was collected into lithium heparin tubes and processed to plasma. A portion of plasma was analyzed for clinical chemistries by the Testing Facility (IDEXX) and the rest stored frozen at nominally −70° C. […] Animals were age matched and assigned into eight (8) treatment groups according to Table 15. […] All animals survived until their scheduled euthanasia time. Tissues were collected per protocol. The amount of AC and a cCPP-AC in various tissue samples was quantified by LC-MS. Exon skipping in different tissues were analyzed by RT-PCR and the quantification of exon 44 correction.
Exon Skipping Analysis by RT-PCR: hDMD mice and NHP express full-length human dystrophin mRNA. The delivery of AC can alter the splicing and result in a shortened dystrophin mRNA after exon 44 skipping. The tissues were homogenized using 1 mL of RLT lysis buffer (Qiagen, Cat #79216). The detection of splicing correction process was measured by RT-PCR where extracted RNAs from tissues were first reverse-transcribed into cDNA and further analyzed by one step RT-PCR using the following primer set: forward primer 5′-[…]-3′ (SEQ ID NO: 262) and reverse primer 5′-[…]-3′ (SEQ ID NO: 263). […] Quantification of the relative intensity of the bands corresponding to skipped and unskipped transcripts were performed to assess AC-induced exon-44-skipping efficacy. The degree (percentage) of splicing correction detected by RT-PCR was calculated using the following equation: % correction=(intensity of 493 bp fragment band)/(intensity of 493 bp fragment band+intensity of 641 bp fragment band).

[3] abbreviates: MDX mice, single IV 20 mg/kg, day 5.

Like-named read-outs stand apart in the source and are kept apart here. Starred links: 1 amine or outer side, 2 acyl side, 3 side chain; linkers in the order of their positions; H or OH if unused. Non-standard residues stand in square brackets, D forms with d. Residues, ends and D or L forms follow the SMILES beside them. Groups on a side chain read outwards from the residue. *: point of attachment. X1 = NC(=O)[C@H](CCCCNC(=O)COCCOCCNC(=O)CCC(=O)NCCOCCOCCCCCCCl)N*; Ala(piperidin-4-yl) = O=C([C@H](CC1CCN([*:3])CC1)N[*:1])[*:2]; Phe(4-guanidino) = N=C(N)Nc1ccc(C[C@H](N)C(=O)O)cc1; 2Nal = N[C@@H](Cc1ccc2ccccc2c1)C(=O)O; Lys(Me2) = CN(C)CCCC[C@H](N)C(=O)O; hArg = N=C(N)NCCCC[C@H](N)C(=O)O; Cit = NC(=O)NCCC[C@H](N)C(=O)O; Agb = N=C(N)NCC[C@H](N)C(=O)O; Agp = N=C(N)NC[C@H](N)C(=O)O; PEG4 = NCCOCCOCCOCCOCCC(=O)O

As for `N=C(N)NCCC[C@H]1NC(=O)[C@H](CCCNC(N)=O)NC(=O)[C@@H](CCCNC(=N)N)NC(=O)[C@H](CCCNC(N)=O)NC(=O)[C@H](Cc2ccc3ccccc3c2)NC(=O)[C@@H](Cc2ccccc2)NC(=O)[C@H](Cc2ccccc2)NC(=O)[C@H](CCC(=O)NCCOCCOCCOCCOCCC(=O)N[C@@H](CCCCNC(=O)COCCOCCNC(=O)CCC(=O)NCCOCCOCCCCCCCl)C(N)=O)NC1=O` [Compound 1a, cyclo(FfΦ-Cit-r-Cit-rQ)-PEG4-K-NH2] (cyclo([2Nal][Cit][dR][Cit][dR]E([PEG4-X1])F[dF])), the IC50 (commonly the concentration that gives 50% inhibition) in assay [1] was 849 nM.
Same read-out and setting: with `N=C(N)NCCC[C@H]1NC(=O)[C@H](CC2CCNCC2)NC(=O)[C@@H](CCCNC(=N)N)NC(=O)[C@H](CC2CCNCC2)NC(=O)[C@H](Cc2ccc3ccccc3c2)NC(=O)[C@@H](Cc2ccccc2)NC(=O)[C@H](Cc2ccccc2)NC(=O)[C@H](CCC(=O)NCCOCCOCCOCCOCCC(=O)N[C@@H](CCCCNC(=O)COCCOCCNC(=O)CCC(=O)NCCOCCOCCCCCCCl)C(N)=O)NC1=O` [Compound 2a, cyclo(FfΦ-Pia-r-Pia-rQ)-PEG4-K-NH2] (cyclo([2Nal][Ala(piperidin-4-yl)][dR][Ala(piperidin-4-yl)][dR]E([PEG4-X1])F[dF])) the figure was 881 nM.
`CN(C)CCCC[C@@H]1NC(=O)[C@H](Cc2ccc3ccccc3c2)NC(=O)[C@@H](Cc2ccccc2)NC(=O)[C@H](Cc2ccccc2)NC(=O)[C@H](CCC(=O)NCCOCCOCCOCCOCCC(=O)N[C@@H](CCCCNC(=O)COCCOCCNC(=O)CCC(=O)NCCOCCOCCCCCCCl)C(N)=O)NC(=O)[C@@H](CCCNC(=N)N)NC(=O)[C@H](CCCCN(C)C)NC(=O)[C@@H](CCCNC(=N)N)NC1=O` [Compound 3a, cyclo(FfΦ-Dml-r-Dml-rQ)-PEG4-K-NH2] (cyclo(F[dF][2Nal][Lys(Me2)][dR][Lys(Me2)][dR]E([PEG4-X1]))) came in with an IC50 in assay [1] of 932 nM.
Consider `N=C(N)NCCC[C@H]1NC(=O)[C@H](CNC(=N)N)NC(=O)[C@@H](CCCNC(=N)N)NC(=O)[C@H](CNC(=N)N)NC(=O)[C@H](Cc2ccc3ccccc3c2)NC(=O)[C@@H](Cc2ccccc2)NC(=O)[C@H](Cc2ccccc2)NC(=O)[C@H](CCC(=O)NCCOCCOCCOCCOCCC(=O)N[C@@H](CCCCNC(=O)COCCOCCNC(=O)CCC(=O)NCCOCCOCCCCCCCl)C(N)=O)NC1=O` [Compound A, cyclo(FfΦ-Agp-r-Agp-rQ)-PEG4-K-NH2] (cyclo([2Nal][Agp][dR][Agp][dR]E([PEG4-X1])F[dF])), for which the IC50 in assay [1] came out at 626 nM. The IC50 values of the last two compounds are within 1.5-fold of each other.
Still for that read-out and setting: under `N=C(N)NCCC[C@H]1NC(=O)[C@H](CCNC(=N)N)NC(=O)[C@@H](CCCNC(=N)N)NC(=O)[C@H](CCNC(=N)N)NC(=O)[C@H](Cc2ccc3ccccc3c2)NC(=O)[C@@H](Cc2ccccc2)NC(=O)[C@H](Cc2ccccc2)NC(=O)[C@H](CCC(=O)NCCOCCOCCOCCOCCC(=O)N[C@@H](CCCCNC(=O)COCCOCCNC(=O)CCC(=O)NCCOCCOCCCCCCCl)C(N)=O)NC1=O` [Compound B, cyclo(FfΦ-Agb-r-Agb-rQ)-PEG4-K-NH2] (cyclo([2Nal][Agb][dR][Agb][dR]E([PEG4-X1])F[dF])) stands 695 nM; under `N=C(N)NCCCC[C@@H]1NC(=O)[C@H](Cc2ccc3ccccc3c2)NC(=O)[C@@H](Cc2ccccc2)NC(=O)[C@H](Cc2ccccc2)NC(=O)[C@H](CCC(=O)NCCOCCOCCOCCOCCC(=O)N[C@@H](CCCCNC(=O)COCCOCCNC(=O)CCC(=O)NCCOCCOCCCCCCCl)C(N)=O)NC(=O)[C@@H](CCCNC(=N)N)NC(=O)[C@H](CCCCNC(=N)N)NC(=O)[C@@H](CCCNC(=N)N)NC1=O` [Compound C, cyclo(FfΦ-hR-r-hR-rQ)-PEG4-K-NH2] (cyclo([2Nal][hArg][dR][hArg][dR]E([PEG4-X1])F[dF])), 786 nM.
On the same count and under the same terms, under `N=C(N)NCCC[C@H]1NC(=O)[C@H](Cc2ccc(NC(=N)N)cc2)NC(=O)[C@@H](CCCNC(=N)N)NC(=O)[C@H](Cc2ccc(NC(=N)N)cc2)NC(=O)[C@H](Cc2ccc3ccccc3c2)NC(=O)[C@@H](Cc2ccccc2)NC(=O)[C@H](Cc2ccccc2)NC(=O)[C@H](CCC(=O)NCCOCCOCCOCCOCCC(=O)N[C@@H](CCCCNC(=O)COCCOCCNC(=O)CCC(=O)NCCOCCOCCCCCCCl)C(N)=O)NC1=O` [Compound D, cyclo(FfΦ-4gp-r-4gp-rQ)-PEG4-K-NH2] (cyclo([2Nal][Phe(4-guanidino)][dR][Phe(4-guanidino)][dR]E([PEG4-X1])F[dF])) stands 695 nM.
With `CCOCc1nc2c(N)nc3ccccc3c2n1CC(C)(C)O` [Compound R848, reference compound], the IRF5 protein expression entry in the assay with IRF5 protein was “significantly increases IRF5 Protein expression”.
Consider `N=C(N)NCCC[C@@H]1NC(=O)[C@H](Cc2ccc3ccccc3c2)NC(=O)[C@@H](Cc2ccccc2)NC(=O)[C@H](Cc2ccccc2)NC(=O)[C@H](CCC(=O)NCCOCCOCCOCCOCCC(=O)N[C@@H](CCCCNC(=O)COCCOCCNC(=O)CCC(=O)NCCOCCOCCCCCCCl)C(N)=O)NC(=O)[C@@H](CCCNC(=N)N)NC(=O)[C@H](CCCNC(=N)N)NC(=O)[C@@H](CCCNC(=N)N)NC1=O` [EEV12, cyclo(FfΦRrRrQ)-PEG4-K(chloroalkane)-NH2, reference compound] (cyclo([2Nal]R[dR]R[dR]E([PEG4-X1])F[dF])), for which it took 792 nM to reach half-maximal inhibition in assay [1] (IC50).
“Ac-KBK-AEEA-K(cyclo[FGFGRGRQ])-AEEA-K(N3)-NH2 [EEV-PMO-MDX-5]”: in the assay on exon 23 of DMD (mouse, in vivo, iv, 20 mg/kg), the “exon skipping in heart vs diaphragm, tibialis anterior, triceps” value (from here on “exon skipping in heart vs diaphragm”) was “a lower level of exon skipping in heart tissue”.
As to “Ac-PKKKRKV-AEEA-K(cyclo[FGFGRGRQ])-AEEA-K(N3)-NH2 [EEV-PMO-MDX-4]”, the “exon skipping in heart vs diaphragm” value in the assay on exon 23 of DMD (setting [3]) is recorded as “a lower level of exon skipping in heart tissue”.
As to “Ac-PKKKRKV-AEEA-K(cyclo[FGFGRGRQ])-PEG12-OH [EEV-PMO-IRF5-1]”, the “IRF-5 protein expression compared to cells stimulated with R848” value in the assay on IRF5 protein (RAW 264.7 cells, all tested concentrations) is given as “significant reduction in IRF-5 protein expression”. In addition, in the assay with IRF5 protein (mouse macrophage cells, 30 μM, 10 μM and 3 μM), the IRF5 protein levels result is listed as “statistically significant reduction of IRF5 protein levels”.
“Ac-PKKKRKV-AEEA-K(cyclo[FfFGRGRQ])-AEEA-K(N3)-NH2 [EEV-PMO-MDX-7]”: in the assay on exon 23 of DMD (setting [3]), the “exon skipping in heart vs diaphragm” value is “a lower level of exon skipping in heart tissue”.
For “Ac-PKKKRKV-AEEA-K(cyclo[GfFGrGrQ])-PEG12-OH [EEV-PMO-DMD44-2]”, the exon skipping in assay [2] (10 mpk IV, Diaphragm) amounted to 14%; in assay [2] (10 mpk IV, TiA), 22%; in assay [2] (10 mpk IV, Triceps), 17%; in assay [2] (10 mpk IV, heart) it was 0%; in assay [2] (20 mpk IV, Diaphragm) it was 35%; in assay [2] (20 mpk IV, TiA), 58%. Also, the exon skipping came to 44 in assay [2] (20 mpk IV, Triceps); 2% in assay [2] (20 mpk IV, heart); 83% in assay [2] (40 mpk IV, Diaphragm); 95% in assay [2] (40 mpk IV, TiA); 92% in assay [2] (40 mpk IV, Triceps); 17% in assay [2] (40 mpk IV, heart). Besides, the exon skipping worked out at 99% in assay [2] (80 mpk IV, Diaphragm); 99% in assay [2] (80 mpk IV, TiA); 98% in assay [2] (80 mpk IV, Triceps); 79% in assay [2] (80 mpk IV, heart). In addition, the “minimum efficacious dose in the heart” value in assay [2] (IV) was found to be 40 mpk.
